Laboratory results taken from publication PMC6916368, “Cell‐Based Optimization of Covalent Reversible Ketoamide Inhibitors Bridging the Unprimed to the Primed Site of the Proteasome β5 Subunit” (Chemmedchem, 2019).
Like-named read-outs stand apart in the source and are kept apart here. Peptide text beside a SMILES is read from it. * marks the point of attachment. Cbz = O=C(OCc1ccccc1)*; OtBu = CC(C)(C)O*

Tests used:
[1] = biological target: T1, β5c subunit of isolated human 20S proteasome (Homo sapiens, UniProt P28074); experiment: Proteasome inhibition assay (20 S Proteasome Assay Kit, Suc‐LLVY‐AMC); assay type: biochemical; conditions: for inhibition at 1 µM: read-out: Inhibition cCP β5; for inhibition at 0.1 µM: read-out: Rel. Inhibition β5c
T1 construct: purchased Enzo Life Sciences
Procedure: (§1) Proteasome inhibition assay. […] The 20 S Proteasome Assay Kit for Drug Discovery was used according to the supplier's protocol using Suc‐LLVY‐AMC (β5), Bz‐VGR‐AMC (β2) or Z‐LLE‐AMC (β1) as substrates (Enzo Life Sciences). Single point measurements of residual activity of proteasome activity were performed at a final concentration of 100 nM (n=3, β5c, β5i) or 1 μM (n=1, β1c, β2c, β5c, β5i, SI chapter 2a, Table S1). […] Inhibitors were prepared in 2‐fold concentration (cfinal=100 nM) and added to proteasomes (mfinal=200 ng/well). After 30 min incubation, substrate was added (cfinal=100 μM), incubated for 60 minutes and fluorescence was read using a Tecan M1000 microplate reader. […] IC50 values were determined from technical duplicates as mean value of three independent experiments.

[2] = biological target: T2, β1c subunit of isolated human 20S proteasome (Homo sapiens, UniProt P28072); experiment: Proteasome inhibition assay (20 S Proteasome Assay Kit, Z‐LLE‐AMC); assay type: biochemical; conditions: read-out: Inhibition cCP β1
T2 construct: purchased Enzo Life Sciences
Procedure: as §1

[3] = system: MV4‐11 cells; experiment: Cell viability endpoint assay (Celltiter Blue, 72 h); assay type: cell-based; conditions: Homo sapiens, MV4-11, mean±SD from two independent experiments
Procedure: Cell lines. MV4‐11 (ACC 102), Jurkat (ACC 282) and THP‐1 (ACC 16) cells were obtained from DSMZ and maintained at 37 °C and 5 % CO2 at densities between 0.2–1×10^6 cells per mL in RMPI‐1640 medium supplemented with 10 % FBS, L‐glutamine (2 mM) and penicillin/streptomycin.
Cell viability endpoint assay. For the determination of cytotoxicity of proteasome inhibitors 50.000 cells per well were plated in 90 μl RPMI‐1640 medium supplemented with 0.1 % FBS and incubated overnight at 37 °C and 5 % CO2. Inhibitors were serially diluted in RPMI‐1640 medium as 10‐fold stocks and added to cells giving the final concentration (1 nM to 10 μM, Figure S2–S4) and incubated for 72 h at 37 °C and 5 % CO2. Cell viability was determined using the Celltiter Blue assay (Promega) by adding 20 μl of reagent, incubation for 120 minutes at 37 °C and 5 % CO2 and fluorescent read‐out using a Tecan M1000 microplate reader. Dose‐response curves were fitted to the equation “Y=Bottom+(Top‐Bottom)/(1+10^(X−L°^gIC50))” using GraphPad Prism 7.02. IC50 values are determined from technical triplicates as mean value of two independent experiments. Standard deviations (Table S1) as well as dose response curves (SI chapter 2b) are given in the supplementary information.

[4] = biological target: T3, β2c subunit of isolated human 20S proteasome (Homo sapiens, UniProt Q99436); experiment: Proteasome inhibition assay (20 S Proteasome Assay Kit, Bz‐VGR‐AMC); assay type: biochemical; conditions: c = 1 µM, n=1; read-out: Inhibition cCP β2
T3 construct: purchased Enzo Life Sciences
Procedure: Proteasome inhibition assay. Bortezomib (Selleckchem) and carfilzomib (MedChemExpress) were purchased and used without further purification. The 20 S Proteasome Assay Kit for Drug Discovery was used according to the supplier's protocol using Suc‐LLVY‐AMC (β5), Bz‐VGR‐AMC (β2) or Z‐LLE‐AMC (β1) as substrates (Enzo Life Sciences). Single point measurements of residual activity of proteasome activity were performed at a final concentration of 100 nM (n=3, β5c, β5i) or 1 μM (n=1, β1c, β2c, β5c, β5i, SI chapter 2a, Table S1). […] Inhibitors were prepared in 2‐fold concentration (cfinal=100 nM) and added to proteasomes (mfinal=200 ng/well). After 30 min incubation, substrate was added (cfinal=100 μM), incubated for 60 minutes and fluorescence was read using a Tecan M1000 microplate reader. Dose‐response curves were fitted to the equation Y=100/(1+10^((L°^gIC50−X)*HillSl°^pe)) using GraphPad Prism 7.02. IC50 values were determined from technical duplicates as mean value of three independent experiments.

[5] = biological target: T4, β5i subunit of isolated human 20S proteasome (Homo sapiens, UniProt P28062); experiment: Proteasome inhibition assay (20 S Proteasome Assay Kit, Suc‐LLVY‐AMC); assay type: biochemical; conditions: for inhibition at 1 µM: c = 1 µM, n=1, read-out: Inhibition iCP β5; for inhibition at 0.1 µM: c=100 nM, read-out: Rel. Inhibition β5i
T4 construct: purchased Enzo Life Sciences
Procedure: as §1

| Compound | IC50 [3] [nM] | inhibition at 1 µM [4] [%] | inhibition at 1 µM ([1]; c = 1 µM, n=1) [%] | inhibition at 0.1 µM ([1]; c=100 nM) [%] | inhibition at 1 µM [5] [%] | inhibition at 0.1 µM [5] [%] | inhibition at 1 µM ([2]; c = 1 µM, n=1) [%] | inhibition at 1 µM [1] [%] | inhibition at 0.1 µM [1] [%] | inhibition at 1 µM [2] [%] |
| --- | --- | --- | --- | --- | --- | --- | --- | --- | --- | --- |
| CC(C)C[C@@H](C=O)NC(=O)[C@H](CC(C)C)NC(=O)[C@H](CC(C)C)NC(=O)OCc1ccccc1 [Compound 4, MG132, reference compound] (Cbz-Leu-Leu-Leu-aldehyde) | 131 ± 12 | 21 |  |  |  |  |  | 82 | 43 | 27 |
| CC(C)C[C@@H](C=O)NC(=O)[C@H](CC(=O)OC(C)(C)C)NC(=O)[C@H](CC(C)C)NC(=O)OCc1ccccc1 [Compound 5, BSc2118, reference compound] (Cbz-Leu-Asp(OtBu)-Leu-aldehyde) | 123 ± 12 | 4 | 90 | 54 | 72 | 11 | 16 |  |  |  |
| CC(C)C[C@H](NC(=O)OCc1ccccc1)C(=O)N[C@@H](CC(C)C)C(=O)N[C@@H](CC(C)C)C(=O)C(=O)Nc1ccc(Oc2ccccc2)cc1 [Compound 10, Benzyl‐((S)‐4‐methyl‐1‐(((S)‐4‐methyl‐1‐(((S)‐5‐methyl‐1,2‐dioxo‐1‐((4‐phenoxyphenyl)‐amino)hexan‐3‐yl)amino)‐1‐oxopentan‐2‐yl)amino)‐1‐oxopentan‐2‐yl)carbamate] | 45 ± 3 | 2 | 63 | 25 | 23 | 5 | -3 |  |  |  |
| CC(C)C[C@H](NC(=O)OCc1ccccc1)C(=O)N[C@@H](CC(=O)OC(C)(C)C)C(=O)N[C@@H](CC(C)C)C(=O)C(=O)Nc1ccccc1 [Compound 16, tert ‐Butyl‐(S)‐3‐((S)‐2‐(((benzyloxy)carbonyl)amino)‐4‐methylpentanamido)‐4‐(((S)‐5‐methyl‐1,2‐dioxo‐1‐(phenylamino)hexan‐3‐yl)amino)‐4‐oxobutanoate] | 46 ± 6 | -8 | 91 | 57 | 76 | 48 | 12 |  |  |  |
| Cc1ccc(NC(=O)C(=O)[C@H](CC(C)C)NC(=O)[C@H](CC(=O)OC(C)(C)C)NC(=O)[C@H](CC(C)C)NC(=O)OCc2ccccc2)c(C)c1 [Compound 17, tert ‐Butyl‐(S)‐3‐((S)‐2‐(((benzyloxy)carbonyl)amino)‐4‐methylpentanamido)‐4‐(((S)‐1‐((2,4‐dime‐thylphenyl)amino)‐5‐methyl‐1,2‐dioxohexan‐3‐yl)amino)‐4‐oxobutanoate] | 46 ± 1 | -10 | 88 | 43 | 69 | 36 | 11 |  |  |  |
| CC(C)C[C@H](NC(=O)OCc1ccccc1)C(=O)N[C@@H](CC(=O)OC(C)(C)C)C(=O)N[C@@H](CC(C)C)C(=O)C(=O)Nc1ccccc1Oc1ccccc1 [Compound 18, tert ‐Butyl‐(S)‐3‐((S)‐2‐(((benzyloxy)carbonyl)amino)‐4‐methylpentanamido)‐4‐(((S)‐5‐methyl‐1,2‐dioxo‐1‐((2‐phenoxyphenyl)amino)hexan‐3‐yl)amino)‐4‐oxobutanoate] | 76 ± 14 | 2 | 59 | 28 | 7 | 18 | -12 |  |  |  |

The next lines start with results.

| IC50 [3] [nM] | inhibition at 1 µM [4] [%] | inhibition at 1 µM ([1]; c = 1 µM, n=1) [%] | inhibition at 0.1 µM ([1]; c=100 nM) [%] | inhibition at 1 µM [5] [%] | inhibition at 0.1 µM [5] [%] | inhibition at 1 µM ([2]; c = 1 µM, n=1) [%] | Compound | inhibition at 1 µM [1] [%] | inhibition at 0.1 µM [1] [%] | inhibition at 1 µM [2] [%] |
| --- | --- | --- | --- | --- | --- | --- | --- | --- | --- | --- |
| 203 ± 22 | -4 | 32 | 12 | 7 | 8 | -7 | CC(C)C[C@H](NC(=O)OCc1ccccc1)C(=O)N[C@@H](CC(C)C)C(=O)N[C@@H](CC(C)C)C(=O)C(=O)Nc1ccccc1Oc1ccccc1 [Compound 8, Benzyl‐((S)‐4‐methyl‐1‐(((S)‐4‐methyl‐1‐(((S)‐5‐methyl‐1,2‐dioxo‐1‐((2‐phenoxyphenyl)‐amino)hexan‐3‐yl)amino)‐1‐oxopentan‐2‐yl)amino)‐1‐oxopentan‐2‐yl)carbamate] |  |  |  |
| 19 ± 1 | 10 | 59 | 46 | 10 | 12 | -10 | Cc1cc(C)c(Oc2ccccc2)cc1NC(=O)C(=O)[C@H](CC(C)C)NC(=O)[C@H](CC(C)C)NC(=O)[C@H](CC(C)C)NC(=O)OCc1ccccc1 [Compound 11, Benzyl((S)‐1‐(((S)‐1‐(((S)‐1‐((2,4‐dimethyl‐5‐phenoxyphenyl)amino)‐5‐methyl‐1,2‐dioxo‐hexan‐3‐yl)amino)‐4‐methyl‐1‐oxopentan‐2‐yl)amino)‐4‐methyl‐1‐oxopentan‐2‐yl)carbama‐te] |  |  |  |
| 26 ± 8 | 4 | 53 | 20 | 16 | 9 | -33 | Cc1ccc(NC(=O)C(=O)[C@H](CC(C)C)NC(=O)[C@H](CC(C)C)NC(=O)[C@H](CC(C)C)NC(=O)OCc2ccccc2)c(C)c1Oc1ccccc1 [Compound 12, Benzyl((S)‐1‐(((S)‐1‐(((S)‐1‐((2,4‐dimethyl‐3‐phenoxyphenyl)amino)‐5‐methyl‐1,2‐dioxo‐hexan‐3‐yl)amino)‐4‐methyl‐1‐oxopentan‐2‐yl)amino)‐4‐methyl‐1‐oxopentan‐2‐yl)carbama‐te] |  |  |  |
| 23 ± 2 | 4 | 69 | 49 | 15 | 28 | -4 | Cc1ccc(NC(=O)C(=O)[C@H](CC(C)C)NC(=O)[C@H](CC(C)C)NC(=O)[C@H](CC(C)C)NC(=O)OCc2ccccc2)cc1Oc1ccccc1 [Compound 13, Benzyl((S)‐4‐methyl‐1‐(((S)‐4‐methyl‐1‐(((S)‐5‐methyl‐1‐((4‐methyl‐3‐phenoxyphenyl)‐amino)‐1,2‐dioxohexan‐3‐yl)amino)‐1‐oxopentan‐2‐yl)amino)‐1‐oxopentan‐2‐yl)carbamate] |  |  |  |
| 27 ± 8 | 5 | 78 | 41 | 30 | 29 | -10 | Cc1c(NC(=O)C(=O)[C@H](CC(C)C)NC(=O)[C@H](CC(C)C)NC(=O)[C@H](CC(C)C)NC(=O)OCc2ccccc2)cccc1Oc1ccccc1 [Compound 14, Benzyl((S)‐4‐methyl‐1‐(((S)‐4‐methyl‐1‐(((S)‐5‐methyl‐1‐((2‐methyl‐3‐phenoxyphenyl)‐amino)‐1,2‐dioxohexan‐3‐yl)amino)‐1‐oxopentan‐2‐yl)amino)‐1‐oxopentan‐2‐yl)carbamate] |  |  |  |
| 16 ± 1 | 9 | 75 | 26 | 48 | 19 | -2 | Cc1ccc(Oc2ccccc2)cc1NC(=O)C(=O)[C@H](CC(C)C)NC(=O)[C@H](CC(C)C)NC(=O)[C@H](CC(C)C)NC(=O)OCc1ccccc1 [Compound 15, Benzyl((S)‐4‐methyl‐1‐(((S)‐4‐methyl‐1‐(((S)‐5‐methyl‐1‐((2‐methyl‐5‐phenoxyphenyl)‐amino)‐1,2‐dioxohexan‐3‐yl)amino)‐1‐oxopentan‐2‐yl)amino)‐1‐oxopentan‐2‐yl)carbamate] |  |  |  |
